Results reported in ChEMBL document CHEMBL1201862, “PubChem BioAssay data set” (2004).
Calls of active or inactive are those of the source.

How the values were obtained:
Cytochrome P450 2C19 = Cytochrome P450 2C19 (Homo sapiens, UniProt P33261); assay: Cytochrome panel assay with activity outcomes. Panel member name: p450-cyp2c19 Compounds with AC50 equal or less than 10 uM are considered active; type: functional
Cytochrome P450 1A2 = molecular target: T1, Cytochrome P450 1A2 (Homo sapiens, UniProt P05177);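 further: PubChem cytochrome P450 panel assay, CYP1A2 panel member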
T1 sequence (P05177 whole entry): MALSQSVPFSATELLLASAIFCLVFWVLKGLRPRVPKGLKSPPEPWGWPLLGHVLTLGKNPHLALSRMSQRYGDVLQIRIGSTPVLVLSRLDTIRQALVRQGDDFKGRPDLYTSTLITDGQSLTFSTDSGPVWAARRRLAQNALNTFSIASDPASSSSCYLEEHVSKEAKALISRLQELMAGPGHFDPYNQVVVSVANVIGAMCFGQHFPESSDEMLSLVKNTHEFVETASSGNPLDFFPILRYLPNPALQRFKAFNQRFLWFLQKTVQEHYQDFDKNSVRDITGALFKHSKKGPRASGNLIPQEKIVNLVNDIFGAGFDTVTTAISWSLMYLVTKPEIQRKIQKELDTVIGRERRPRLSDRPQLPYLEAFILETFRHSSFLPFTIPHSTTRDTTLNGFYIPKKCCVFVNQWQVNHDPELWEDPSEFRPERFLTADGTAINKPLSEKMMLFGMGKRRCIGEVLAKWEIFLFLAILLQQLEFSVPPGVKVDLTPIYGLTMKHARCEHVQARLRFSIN

INS1 = assay: beta cell apoptosis inhibitors, cytokine rescue, dose response, luminescence, retest (AID 449756); type: functional, cell-based; conditions: Rattus norvegicus;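 further: cell death triggered by IL-1 beta plus TNF-alpha plus IFN-gamma mixture; protective hits raise ATP signal compared with cytokine alone wells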
Cytochrome P450 3A4 = Cytochrome P450 3A4 (Homo sapiens, UniProt P08684);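 further: CYP3A4 tested as one member of a cytochrome P450 panel screen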
Cytochrome P450 2C9 = Cytochrome P450 2C9 (Homo sapiens, UniProt P11712)
Cytochrome P450 2C9, sequence (P11712 whole entry): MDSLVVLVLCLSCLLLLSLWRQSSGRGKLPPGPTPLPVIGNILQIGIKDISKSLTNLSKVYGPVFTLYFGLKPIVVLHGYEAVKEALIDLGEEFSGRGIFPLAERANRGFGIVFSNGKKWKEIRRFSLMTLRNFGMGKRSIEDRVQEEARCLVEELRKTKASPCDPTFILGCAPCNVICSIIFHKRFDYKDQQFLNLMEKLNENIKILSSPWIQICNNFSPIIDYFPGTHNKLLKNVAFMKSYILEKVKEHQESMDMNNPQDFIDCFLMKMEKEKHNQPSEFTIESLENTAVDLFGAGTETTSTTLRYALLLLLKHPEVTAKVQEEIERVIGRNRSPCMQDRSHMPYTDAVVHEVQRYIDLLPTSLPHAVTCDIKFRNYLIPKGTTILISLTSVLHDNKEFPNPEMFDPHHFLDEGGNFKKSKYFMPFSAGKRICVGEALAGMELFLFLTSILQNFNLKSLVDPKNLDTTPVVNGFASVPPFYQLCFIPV

Cytochrome P450 2C19, sequence (P33261 whole entry): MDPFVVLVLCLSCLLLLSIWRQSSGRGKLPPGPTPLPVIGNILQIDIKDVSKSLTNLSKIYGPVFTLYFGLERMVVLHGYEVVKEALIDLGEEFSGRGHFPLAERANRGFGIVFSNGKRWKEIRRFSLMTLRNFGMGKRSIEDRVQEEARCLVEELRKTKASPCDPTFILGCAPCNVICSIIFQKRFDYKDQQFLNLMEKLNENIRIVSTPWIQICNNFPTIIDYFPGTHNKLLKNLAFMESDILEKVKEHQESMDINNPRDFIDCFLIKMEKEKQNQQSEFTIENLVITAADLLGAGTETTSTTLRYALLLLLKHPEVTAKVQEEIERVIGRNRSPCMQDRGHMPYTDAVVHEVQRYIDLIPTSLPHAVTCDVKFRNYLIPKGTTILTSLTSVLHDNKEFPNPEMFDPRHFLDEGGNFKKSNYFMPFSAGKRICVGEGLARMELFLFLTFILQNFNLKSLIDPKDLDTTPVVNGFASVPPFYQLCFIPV
Cytochrome P450 3A4, sequence (P08684 whole entry): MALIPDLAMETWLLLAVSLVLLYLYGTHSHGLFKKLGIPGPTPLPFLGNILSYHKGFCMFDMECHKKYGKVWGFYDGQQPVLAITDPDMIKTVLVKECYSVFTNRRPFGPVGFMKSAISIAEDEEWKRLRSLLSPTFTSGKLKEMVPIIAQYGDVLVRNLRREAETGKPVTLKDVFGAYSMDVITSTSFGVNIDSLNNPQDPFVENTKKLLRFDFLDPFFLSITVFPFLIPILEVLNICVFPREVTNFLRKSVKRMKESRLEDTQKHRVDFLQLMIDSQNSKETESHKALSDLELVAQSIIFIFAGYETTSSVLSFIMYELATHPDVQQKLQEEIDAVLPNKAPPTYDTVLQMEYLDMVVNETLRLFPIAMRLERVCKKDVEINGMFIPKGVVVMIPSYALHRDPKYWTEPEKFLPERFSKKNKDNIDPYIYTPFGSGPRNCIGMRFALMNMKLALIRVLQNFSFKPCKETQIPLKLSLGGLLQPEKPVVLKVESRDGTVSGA

Cc1cccc(-c2c3c(=O)n(C)c(=O)n(C)c3cn2C2CCCCC2)c1
AC50 (Cytochrome P450 2C19): inconclusive

O=S(=O)(c1ccccc1)N1CCC2(CCCN(c3ncccn3)C2)CC1
AC50 (Cytochrome P450 1A2): 15.8 µM (inconclusive)

CC(C)C[C@H]1C(=O)N2CCC[C@@H]2[C@@]2(O)O[C@](NC(=O)[C@@H]3C=C4c5cccc6[nH]cc(c56)C[C@@H]4N(C)C3)(C(C)C)C(=O)N12
AC50 (Cytochrome P450 1A2): 12.6 µM (inconclusive)

COc1ccc(Br)cc1CN(C)CC(=O)NCc1ccc(F)cc1
AC50 (INS1): 114 µM (active)

Cc1ccc(CN(C(=O)c2cc3ccccc3oc2=O)C2CCS(=O)(=O)C2)cc1 (stereo not drawn)
AC50 (Cytochrome P450 1A2): 31.6 µM (inconclusive) | AC50 (Cytochrome P450 3A4): 4.47 µM (inconclusive)

O=C(Nc1ccc2ccccc2c1)c1onc2c1CCCC2
AC50 (Cytochrome P450 2C19; read-out: AC50): 15.8 µM (inconclusive)

O=C1[C@@H]2[C@H]3[C@H](O)[C@H](O)C/C(=N/OC[C@@H](O)COCc4ccco4)[C@H]3CC[C@H]2C(=O)N1c1ccc(F)cc1F
AC50 (Cytochrome P450 2C19): inconclusive | AC50 (Cytochrome P450 3A4): 3.16 µM (inconclusive)

CCCCN1C(=O)/C(=C\c2ccco2)C(=O)N(CCc2ccccc2)C1=O
AC50 (Cytochrome P450 1A2): 28.2 µM (inconclusive) | AC50 (Cytochrome P450 3A4): 12.6 µM (inconclusive)

C/C(Cl)=C/CSc1nnc2n(N)c(=O)c3ccccc3n12
AC50 (Cytochrome P450 2C19; read-out: AC50): 25.1 µM (inconclusive) | AC50 (Cytochrome P450 2C9): 22.4 µM (inconclusive)

CCc1ccc(C(=O)N2CCC(c3nc4ccccc4s3)CC2)cc1
AC50 (Cytochrome P450 1A2): 17.8 µM (inconclusive) | AC50 (Cytochrome P450 3A4): 39.8 µM (inconclusive)

O=C(NCCO)c1cc2c(s1)CCC2
AC50 (Cytochrome P450 2C19; read-out: AC50): 5.01 µM (inconclusive) | AC50 (Cytochrome P450 1A2): 14.1 µM (inconclusive) | AC50 (Cytochrome P450 2C9): 12.6 µM (inconclusive)

C=C[C@H](CC(C)C)N(Cc1ccccc1)S(=O)(=O)N(Cc1ccc(OC)cc1)[C@H](C=C)CC(C)C
AC50 (INS1): 5.78 µM (active)

O=C(NCc1nc2ccccc2[nH]1)[C@H]1C[C@@H]1[C@H](NP(=O)(c1ccccc1)c1ccccc1)c1ccccc1
AC50 (Cytochrome P450 2C19; read-out: AC50): 39.8 µM (inconclusive) | AC50 (Cytochrome P450 1A2): 15.8 µM (inconclusive) | AC50 (Cytochrome P450 3A4): 0.794 µM (inconclusive)

Cc1cc(=O)n2c3ccccc3n(CC(O)CN3CCCCC3)c2c1C#N (stereo not drawn)
AC50 (Cytochrome P450 1A2): 15.8 µM (inconclusive)

CCC1(O)c2ccccc2-c2ncccc21 (stereo not drawn)
AC50 (Cytochrome P450 2C19; read-out: AC50): 39.8 µM (inconclusive)

COc1cnc(-c2ccccn2)nc1Sc1c(Cl)cccc1Cl
AC50 (Cytochrome P450 2C19; read-out: AC50): 8.91 µM (inconclusive) | AC50 (Cytochrome P450 1A2): 2.82 µM (inconclusive) | AC50 (Cytochrome P450 2C9): 15.8 µM (inconclusive)

CCCCCCc1ccc(N2C[C@H](Cc3ccccc3)[C@@H](CC(=O)NCc3ccc(OC)cc3)C2=O)cc1
AC50 (INS1): 7.78 µM (active)

O=C(Oc1ccccc1)N1CCC[C@@]2(CCN(C(c3ccccc3)c3ccccc3)C2)C1
AC50 (Cytochrome P450 1A2): 25.1 µM (inconclusive)

Clc1ccc(-c2nnc(-c3ccc(Br)cc3)c(N3CCSCC3)n2)cc1
AC50 (Cytochrome P450 2C19; read-out: AC50): 11.2 µM (inconclusive) | AC50 (Cytochrome P450 2C9): 10 µM (inconclusive)

Cn1cccc1C(=O)N1CCC2(CCN(Cc3ccccc3)CC2)CC1
AC50 (Cytochrome P450 2C19; read-out: AC50): 39.8 µM (inconclusive)

Cc1cccc(CNc2ccc(S(=O)(=O)N3CCCCC3)cc2)c1
AC50 (INS1): 27.2 µM (active)

O=[N+]([O-])c1ccc(N2CCN(CCOc3nonc3-c3ccccc3)CC2)c(Cl)c1
AC50 (INS1): 4.8 µM (active) | AC50 (Cytochrome P450 3A4): 14.1 µM (inconclusive)

C[C@H]1C2=C3C(CC[C@H]4C(OCc5ccc(F)cc5C(F)(F)F)OC[C@](C)([C@@H]34)N(C(=O)OC(C)(C)C)C2)C2COC(=O)OCC21 (stereo partly drawn)
AC50 (Cytochrome P450 1A2): 6.31 µM (inconclusive)

Cc1cc(C)nc(NN2C(=O)/C(=C/c3ccccc3)SC2=S)n1
AC50 (Cytochrome P450 2C19): inconclusive

N#Cc1ccc(-c2csc(NNC(=O)c3ccccc3)n2)cc1
AC50 (INS1): > 260 µM (inactive)

Cc1noc(C)c1C(=O)N1CCC[C@@]2(CCN(Cc3cc(C(F)(F)F)cc(C(F)(F)F)c3)C2)C1
AC50 (Cytochrome P450 2C19): inconclusive | AC50 (Cytochrome P450 3A4): 7.94 µM (inconclusive)

CCOC(=O)c1cc(NC(=O)c2ccc(C)cc2)c(=O)oc1-c1ccccc1
AC50 (Cytochrome P450 2C19; read-out: AC50): 2.82 µM (inconclusive) | AC50 (Cytochrome P450 3A4): 28.2 µM (inconclusive)

COC(=O)[C@@]1(Cc2ccc(F)cc2)[C@H]2c3cc(C(=O)N4CCCC4)n(CCc4ccc(OC)c(Br)c4)c3C[C@H]2CN1C(=O)c1ccccc1
AC50 (Cytochrome P450 1A2): 15.8 µM (inconclusive)

NCCNC(=S)S
AC50 (Cytochrome P450 2C19; read-out: AC50): 3.98 µM (inconclusive) | AC50 (Cytochrome P450 2C9): 6.31 µM (inconclusive)

COc1ccc(-[n+]2c(-c3ccc(Cl)cc3)cn3c2CCCCC3)cc1
AC50 (INS1): 1.44 µM (active)

COc1ccc(Nc2cc(=O)n(C3CCCCC3)c(=O)[nH]2)c(OC)c1
AC50 (Cytochrome P450 1A2): 31.6 µM (inconclusive) | AC50 (Cytochrome P450 2C9): 25.1 µM (inconclusive)

CN(C)C(=O)c1ccc(-c2ccc3ncnc(NCCN4CCOCC4)c3c2)cc1
AC50 (Cytochrome P450 1A2): 25.1 µM (inconclusive) | AC50 (Cytochrome P450 3A4): 15.8 µM (inconclusive)

CC(C)(CS)C(=O)N1CCC[C@H]1C(=O)O
AC50 (Cytochrome P450 2C19; read-out: AC50): 15.8 µM (inconclusive)

CNCCC=C1c2ccccc2C=Cc2ccccc21
AC50 (Cytochrome P450 1A2): 6.31 µM (inconclusive) | AC50 (Cytochrome P450 3A4): 12.6 µM (inconclusive)

COc1ccc(Oc2ncc3nc(-c4ccc(Cl)cc4)c(=O)n(C[C@H]4CCCO4)c3n2)cc1
AC50 (Cytochrome P450 2C19; read-out: AC50): 25.1 µM (inconclusive)

COc1cc2c(C(=O)NCc3ccc(C)o3)cn(CC(C)C)c(=O)c2cc1OC
AC50 (Cytochrome P450 1A2): 1.58 µM (inconclusive) | AC50 (Cytochrome P450 2C9): 10 µM (inconclusive)

COC(=O)[C@@]1(Cc2ccc(OC)cc2)[C@H]2c3cc(C(=O)N(C)C)n(Cc4ccc(C(F)(F)F)nc4)c3C[C@H]2CN1C(=O)c1ccccc1
AC50 (Cytochrome P450 2C19; read-out: AC50): 39.8 µM (inconclusive) | AC50 (Cytochrome P450 2C9): 39.8 µM (inconclusive)

CN1C(=O)C(CC(=O)Nc2ccc(F)cc2)N(CCCc2ccccc2)C1=S (stereo not drawn)
AC50 (Cytochrome P450 2C19; read-out: AC50): 1.78 µM (inconclusive) | AC50 (Cytochrome P450 1A2): 25.1 µM (inconclusive) | AC50 (Cytochrome P450 3A4): 22.4 µM (inconclusive) | AC50 (Cytochrome P450 2C9): 2.82 µM (inconclusive)

COc1cccc(Nc2ncc3nc(CCc4ccccc4)c(=O)n(Cc4cccs4)c3n2)c1
AC50 (Cytochrome P450 1A2): 3.16 µM (inconclusive) | AC50 (Cytochrome P450 3A4): 6.31 µM (inconclusive)

Clc1ccc(C(c2ccc(Cl)cc2)[n+]2ccn(C[C@@H](OCc3ccc(Cl)cc3Cl)c3ccc(Cl)cc3Cl)c2)cc1
AC50 (Cytochrome P450 2C19; read-out: AC50): 25.1 µM (inconclusive)

Cc1ccc(-n2ncc(N(C)C)c(Cl)c2=O)cc1
AC50 (Cytochrome P450 1A2): 14.1 µM (inconclusive) | AC50 (Cytochrome P450 3A4): 28.2 µM (inconclusive)

Cc1cccc(CS(=O)(=O)Cc2ccc(C(=O)NCc3ccco3)o2)c1
AC50 (Cytochrome P450 2C19; read-out: AC50): 3.55 µM (inconclusive) | AC50 (Cytochrome P450 1A2): 5.01 µM (inconclusive) | AC50 (Cytochrome P450 3A4): 39.8 µM (inconclusive) | AC50 (Cytochrome P450 2C9): 7.08 µM (inconclusive)

Cc1ccc2[nH]c3nc(CCCn4ccnc4-c4ccccc4)nnc3c2c1
AC50 (Cytochrome P450 2C19; read-out: AC50): 2.51 µM (inconclusive) | AC50 (Cytochrome P450 3A4): 3.16 µM (inconclusive)

COC(=O)c1ccc(NC(C)=O)o1
AC50 (Cytochrome P450 2C19; read-out: AC50): 39.8 µM (inconclusive) | AC50 (Cytochrome P450 1A2): 22.4 µM (inconclusive)

Cc1cccc2c(SCC(=O)NCC3CCCO3)nc(-c3ccc(F)cc3)nc12 (stereo not drawn)
AC50 (Cytochrome P450 1A2): 0.447 µM (inconclusive)

COCCCn1nnnc1SCC(=O)N1CCCC1
AC50 (Cytochrome P450 2C19; read-out: AC50): 25.1 µM (inconclusive) | AC50 (Cytochrome P450 2C9): 0.0126 µM (inconclusive)

Cc1nnc2ccccc2c1O
AC50 (Cytochrome P450 1A2): 0.398 µM (inconclusive)

COCCCNC(=S)N/N=C/c1cccc(OC)c1O
AC50 (INS1): 2.44 µM (active)

CO/C(O)=C1\C(C)=NC(C)=C([N+](=O)[O-])[C@H]1c1ccccc1C(F)(F)F
AC50 (Cytochrome P450 1A2): 31.6 µM (inconclusive)

Cc1nnc(S)n1/N=C/c1ccccc1OCc1ccc(Cl)cc1
AC50 (Cytochrome P450 2C19; read-out: AC50): 11.2 µM (inconclusive)

C/C(=N/NC(=O)CN(c1ccccc1)S(=O)(=O)c1ccccc1)c1ccccc1O
AC50 (INS1): 2.01 µM (active)

CC(C)(C)NC[C@@H](O)COc1ccccc1C1CCCC1
AC50 (Cytochrome P450 1A2): 10 µM (inconclusive) | AC50 (Cytochrome P450 2C9): 12.6 µM (inconclusive)

COc1ccc(C(Cl)=C(c2ccc(OC)cc2)c2ccc(OC)cc2)cc1 [CHLOROTRIANISENE]
AC50 (Cytochrome P450 2C19; read-out: AC50): 0.1 µM (inconclusive)

CCOc1ccc(Cc2nccc3cc(OCC)c(OCC)cc23)cc1OCC [ETHAVERINE]
AC50 (Cytochrome P450 1A2): 10 µM (inconclusive)

CN1CCN2c3ncccc3Cc3ccccc3C2C1 (stereo not drawn) [MIRTAZAPINE]
AC50 (Cytochrome P450 1A2): 20 µM (inconclusive)
